Measurements reported in patent publication US8716242B2, “β-hairpin peptidomimetics” (priority 2009, dated 2014).
Bridge positions count the residues as written; N and C are the ends. Square brackets hold non-standard residues; d marks the D form. Peptide text beside a SMILES is read from it. * marks the point of attachment. Octyloxycarbonyl = CCCCCCCCOC(=O)*; Octanoyl = CCCCCCCC(=O)*; Dab = NCC[C@H](N)C(=O)O

Tests used:
[1] = test system: intracranial glioblastoma and medulloblastoma xenografts; conditions: systemic administration; cited from earlier work
[2] = test system: human red blood cells (hRBC); assay: Hemolysis of human red blood cells; format: cell-based; conditions: 20% hRBC, 1 h, 37° C.
Procedure, shortened: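 Washed fresh human erythrocytes (20% v/v, ~0.9×10^9 cells/mL final) incubated with compound at 100 μM for 1 h at 37 °C with shaking. Supernatant OD540 read; % hemolysis expressed relative to 2.5% Triton X-100 lysis (100%), with PBS/0.001% acetic acid as 0%.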

[3] = Cytotoxicity, MTT reduction assay, HELA cells; format: cell-based; conditions: human, HELA cells (Acc57), 12.5-50 μM
Procedure, shortened: (§1)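 HELA (4000/well) and COS-7 (3400/well) cells were grown 24 h, then exposed 48 h at 37° C to peptides at 12.5, 25 and 50 μM in triplicate. MTT reduction read at 595 nm; growth % relative to time-zero, and GI50 interpolated by trend line.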

[4] = Plasma stability in mouse plasma; format: in vitro ADME; conditions: mouse plasma, 37° C.; for remaining at 24 h, 10 μM: 1440 min, read-out: mouse pl. cpd left at 1440 min
Procedure, shortened: (§2)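 Peptides (1 mM DMSO/H2O stock) were spiked into human or mouse plasma in triplicate and incubated at 37 °C, sampling from 0 to 1440 min. Samples were quenched in formic acid/acetonitrile and analysed by LC/MS MRM. Remaining percent of t=0 was calculated and T1/2 derived by trend fitting.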

[5] = Cytotoxicity, MTT reduction assay, COS-7 cells; format: cell-based; conditions: African green monkey, COS-7 cells (CRL-1651), 12.5-50 μM
Procedure, shortened: as §1

human CXCR4 = biological target: T1, human CXCR4 (Homo sapiens, UniProt P61073); assay: Ca2+-assay: CXCR4-antagonizing activity (SDF-1 induced calcium mobilization); format: cell-based; conditions: mouse pre-B cell line 300-19 transfected with human CXCR4; SDF-1 induced Ca2+ mobilization; read-out: IC50% [nM] ± SD, CXCR4 receptor
T1 construct: expressed in transfected cells; host or cells: mouse pre-B cell line 300-19
Procedure, shortened: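 Mouse pre-B 300-19 cells stably expressing human CXCR4, loaded with Calcium 4 dye in HBSS/20 mM HEPES pH 7.4/0.1% BSA for 1 h at RT. Peptides added before SDF-1; fluorescence (ex 485/em 525 nm) followed for 90 s. IC50 from four-parameter logistic fit of % maximal SDF-1 response.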

[6] = Plasma stability in human plasma; format: in vitro ADME; conditions: human plasma, 37° C.; for remaining at 24 h, 10 μM: 1440 min, read-out: human pl. cpd left at 1440 min; for human pl. T1/2: up to 1440 min
Procedure, shortened: as §2

T1 sequence (P61073 whole entry): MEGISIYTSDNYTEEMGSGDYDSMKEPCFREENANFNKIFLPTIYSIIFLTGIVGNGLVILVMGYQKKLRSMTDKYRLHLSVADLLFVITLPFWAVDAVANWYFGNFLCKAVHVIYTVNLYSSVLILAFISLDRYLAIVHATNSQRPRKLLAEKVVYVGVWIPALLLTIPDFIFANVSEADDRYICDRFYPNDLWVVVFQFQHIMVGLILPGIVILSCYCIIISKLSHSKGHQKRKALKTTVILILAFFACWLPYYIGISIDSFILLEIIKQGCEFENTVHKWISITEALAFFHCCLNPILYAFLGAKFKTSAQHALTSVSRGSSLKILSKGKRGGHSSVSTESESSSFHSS

Compound	growth of intracranial glioblastoma and medulloblastoma xenografts [1]	Hemolysis at 100 μM [2]	GI50 at 48 h [3]	remaining at 24 h, 10 μM [4]	mouse pl. T1/2 ([4]; up to 1440 min)	GI50 at 48 h [5]	IC50 (human CXCR4)	remaining at 24 h, 10 μM [6]	human pl. T1/2 [6]	half-life at 10 μM ([4]; up to 1440 min, read-out: mouse pl. T1/2)
c1cc(CN2CCCNCCNCCCNCC2)ccc1CN1CCCNCCNCCCNCC1 [AMD3100]	inhibits growth	–	–	–	–	–	–	–	–	–
CCCCCCCCOC(=O)NC(=N)NCCC[C@@H]1NC(=O)[C@H](CCN)NC(=O)[C@H]2CCCN2C(=O)[C@H](C)NC(=O)[C@H](CO)NC(=O)[C@@H]2CSSC[C@H](NC(=O)[C@H](Cc3ccc(O)cc3)NC1=O)C(=O)N[C@@H](Cc1ccc(O)cc1)C(=O)N[C@@H](CCC(N)=O)C(=O)N[C@@H](CCCCN)C(=O)N1CCC[C@@H]1C(=O)N1CCC[C@H]1C(=O)N[C@@H](Cc1ccc(O)cc1)C(=O)N[C@@H](Cc1c[nH]cn1)C(=O)N[C@@H](Cc1ccc(O)cc1)C(=O)N2 [compound 6] (cyclo(YHYCSA[dP][Dab]R(Octyloxycarbonyl)YCYQK[dP]P); disulfide 4-11)	–	0.7%	> 10 µM	92%	24 h	> 35 µM	28.5 ± 9 nM	76%	24 h	–
CCCCCCCC(=O)NCCCC[C@@H]1NC(=O)[C@H](Cc2ccc(O)cc2)NC(=O)[C@@H]2CSSC[C@H](NC(=O)[C@H](Cc3ccc(O)cc3)NC(=O)[C@H](Cc3c[nH]cn3)NC(=O)[C@H](Cc3ccc(O)cc3)NC(=O)[C@@H]3CCCN3C(=O)[C@@H](Cc3ccc(O)cc3)NC(=O)[C@H](CCCCN)NC1=O)C(=O)N[C@@H](CO)C(=O)N[C@@H](C)C(=O)N1CCC[C@@H]1C(=O)N[C@@H](CCN)C(=O)N[C@@H](CCCNC(=N)N)C(=O)N[C@@H](Cc1ccc(O)cc1)C(=O)N2 [Ex. 13] (cyclo(A[dP][Dab]RYCYK(Octanoyl)K[dY]PYHYCS); disulfide 6-15)	–	1.2%	> 50 µM	72%	–	> 50 µM	6.3 ± 2.7 nM	100%	24 h	22.4 h
